ChEMBL document CHEMBL5113452, “Synthesis and biological evaluation of hybrids from optically active ring-opened 3-N-butylphthalide derivatives and 4-fluro-edaravone as potential anti-acute ischemic stroke agents” (Bioorg Med Chem, 2022)
Activity calls are given as the source filed them. No cut-off for these calls is given here.

Legend:
Rattus norvegicus [1] = assay: Neuroprotective activity against transient middle cerebral artery occlusion induced ischemia stroke Sprague-Dawley rat model assessed as increase in neuro-fucntional score at 4.53 mg/kg, iv and measured after 24 hrs in presence of S-APB by longa's method; type: functional, organism-based
[2] = Volume of distribution at steady state in Sprague-Dawley rat plasma at 4.53 mg/kg, iv and measured upto 24 hrs by LC-MS/MS analysis; type: ADME, organism-based; conditions: read-out: Vdss
Rattus norvegicus [3] = assay: Neuroprotective activity against transient middle cerebral artery occlusion induced cerebral infraction Sprague-Dawley rat model assessed as decrease in brain edema at 4.10 mg/kg, iv and measured after 24 hrs in presence of NBP; type: functional, organism-based; conditions: dose 4.1 mg/kg
[4] = AUC (0-infinity) in Sprague-Dawley rat plasma at 4.53 mg/kg, iv and measured upto 24 hrs in presence of S-NBP by LC-MS/MS analysis; type: ADME, organism-based; set-up: time < 24 hrs, dose 4.53 mg/kg, route iv
[5] = AUMC (0-t) in Sprague-Dawley rat plasma at 4.53 mg/kg, iv and measured upto 24 hrs in presence of S-NBP by LC-MS/MS analysis; type: ADME, organism-based; conditions: in vivo
Rattus norvegicus [6] = assay: Neuroprotective activity against transient middle cerebral artery occlusion induced ischemia stroke Sprague-Dawley rat model assessed as increase in neuro-fucntional score at 4.53 mg/kg, iv and measured after 24 hrs by longa's method; type: functional, organism-based
[7] = AUMC (0-infinity) in Sprague-Dawley rat plasma at 4.53 mg/kg, iv and measured upto 24 hrs in presence of S-NBP by LC-MS/MS analysis; type: ADME, organism-based; conditions: in vivo
Rattus norvegicus [8] = assay: Neuroprotective activity against transient middle cerebral artery occlusion induced ischemia stroke Sprague-Dawley rat model assessed as increase in neuro-fucntional score at 4.10 mg/kg, iv and measured after 24 hrs in presence of NBP by longa's method; type: functional, organism-based; conditions: dose 4.1 mg/kg
[9] = MRT in Sprague-Dawley rat plasma at 4.53 mg/kg, iv and measured upto 24 hrs in presence of S-NBP by LC-MS/MS analysis; type: ADME, organism-based
[10] = C0 in Sprague-Dawley rat plasma at 4.53 mg/kg, iv and measured upto 24 hrs by LC-MS/MS analysis; type: ADME, organism-based
[11] = MRT in Sprague-Dawley rat plasma at 4.53 mg/kg, iv and measured upto 24 hrs by LC-MS/MS analysis; type: ADME, organism-based
[12] = Toxicity in transient middle cerebral artery occlusion induced ischemia stroke Sprague-Dawley rat model assessed as change in body weight at 4.10 mg/kg, iv and measured after 24 hrs in presence of NBP; type: organism-based; conditions: in vivo, 4.1 mg/kg
[13] = Half life in Sprague-Dawley rat plasma at 4.53 mg/kg, iv and measured upto 24 hrs by LC-MS/MS analysis; type: ADME, organism-based
Rattus norvegicus [14] = assay: Neuroprotective activity against transient middle cerebral artery occlusion induced cerebral infraction Sprague-Dawley rat model assessed as decrease in cerebral infraction volume at 4.10 mg/kg, iv and measured after 24 hrs in presence of NBP by TTC staining based assay; type: functional; set-up: scale not given: the % may be the effect or the level left; conditions: dose 4.1 mg/kg
[15] = Cmax in Sprague-Dawley rat plasma at 4.53 mg/kg, iv and measured upto 24 hrs in presence of S-NBP by LC-MS/MS analysis; type: ADME, organism-based; set-up: time < 24 hrs, dose 4.53 mg/kg, route iv
Rattus norvegicus [16] = assay: Neuroprotective activity against transient middle cerebral artery occlusion induced cerebral infraction Sprague-Dawley rat model assessed as decrease in brain edema at 4.53 mg/kg, iv and measured after 24 hrs in presence of […]; type: functional, organism-based
[17] = Toxicity in transient middle cerebral artery occlusion induced ischemia stroke Sprague-Dawley rat model assessed as change in body weight at 4.53 mg/kg, iv and measured after 24 hrs in presence of S-APB; type: organism-based; conditions: in vivo
[18] = Half life in Sprague-Dawley rat plasma at 4.53 mg/kg, iv and measured upto 24 hrs in presence of S-NBP by LC-MS/MS analysis; type: ADME, organism-based
[19] = AUMC (0-t) in Sprague-Dawley rat plasma at 4.53 mg/kg, iv and measured upto 24 hrs by LC-MS/MS analysis; type: ADME, organism-based; conditions: in vivo
[20] = AUC (0-t) in Sprague-Dawley rat plasma at 4.53 mg/kg, iv and measured upto 24 hrs in presence of S-NBP by LC-MS/MS analysis; type: ADME, organism-based; set-up: time < 24 hrs, dose 4.53 mg/kg, route iv
[21] = AUMC (0-infinity) in Sprague-Dawley rat plasma at 4.53 mg/kg, iv and measured upto 24 hrs by LC-MS/MS analysis; type: ADME, organism-based; conditions: in vivo
[22] = Volume of distribution at steady state in Sprague-Dawley rat plasma at 4.53 mg/kg, iv and measured upto 24 hrs in presence of S-NBP by LC-MS/MS analysis; type: ADME, organism-based; conditions: read-out: Vdss
Rattus norvegicus [23] = assay: Neuroprotective activity against transient middle cerebral artery occlusion induced cerebral infraction Sprague-Dawley rat model assessed as decrease in cerebral infraction volume at 4.53 mg/kg, iv and measured after 24 hrs in presence of S-APB by TTC staining based assay; type: functional; set-up: scale not given: the % may be the effect or the level left
[24] = Toxicity in transient middle cerebral artery occlusion induced ischemia stroke Sprague-Dawley rat model assessed as change in body weight at 4.53 mg/kg, iv and measured after 24 hrs; type: organism-based; conditions: in vivo
[25] = Clearance in Sprague-Dawley rat plasma at 4.53 mg/kg, iv and measured upto 24 hrs in presence of S-NBP by LC-MS/MS analysis; type: ADME, organism-based
[26] = Elimination rate constant in Sprague-Dawley rat plasma at 4.53 mg/kg, iv and measured upto 24 hrs in presence of S-NBP by LC-MS/MS analysis; type: ADME, organism-based
[27] = Cmax in Sprague-Dawley rat plasma at 4.53 mg/kg, iv and measured upto 24 hrs by LC-MS/MS analysis; type: ADME, organism-based; set-up: dose 4.53 mg/kg, time < 24 hrs, route iv
[28] = AUC (0-t) in Sprague-Dawley rat plasma at 4.53 mg/kg, iv and measured upto 24 hrs by LC-MS/MS analysis; type: ADME, organism-based; set-up: dose 4.53 mg/kg, time < 24 hrs, route iv
[29] = C0 in Sprague-Dawley rat plasma at 4.53 mg/kg, iv and measured upto 24 hrs in presence of S-NBP by LC-MS/MS analysis; type: ADME, organism-based
[30] = Elimination rate constant in Sprague-Dawley rat plasma at 4.53 mg/kg, iv and measured upto 24 hrs by LC-MS/MS analysis; type: ADME, organism-based
Rattus norvegicus [31] = assay: Neuroprotective activity against transient middle cerebral artery occlusion induced cerebral infraction Sprague-Dawley rat model assessed as decrease in cerebral infraction volume at 4.53 mg/kg, iv and measured after 24 hrs by TTC staining based assay; type: functional; set-up: scale not given: the % may be the effect or the level left
[32] = Clearance in Sprague-Dawley rat plasma at 4.53 mg/kg, iv and measured upto 24 hrs by LC-MS/MS analysis; type: ADME, organism-based
[33] = AUC (0-infinity) in Sprague-Dawley rat plasma at 4.53 mg/kg, iv and measured upto 24 hrs by LC-MS/MS analysis; type: ADME, organism-based; set-up: time < 24 hrs, dose 4.53 mg/kg, route iv

For `CC1=NN(c2ccc(F)cc2)C(=O)C1`, the Activity (Rattus norvegicus [1]) was “Active”, the Vd [2] was 2.39 L/kg and the Activity (Rattus norvegicus [3]) was “Active”. The AUC(0-inf) [4] was 2780 ng·h/mL, the AUMCt [5] was 4690 hr.hr.ng/ml and the Activity (Rattus norvegicus [6]) was “Active”. The AUMC [7] was 5830 hr.hr.ng/ml, the Activity (Rattus norvegicus [8]) was “Active” and the MRT [9] was 2.1 h. For the same compound, the C0 at 24 h [10] was 4910 ng/mL, the MRT [11] was 0.717 h and the Activity [12] was “Non-Toxic”. The half-life [13] was 1.14 h, the Activity (Rattus norvegicus [14]) was 57.7% and the Cmax [15] was 6100 ng/mL. For the same compound, the Activity (Rattus norvegicus [16]) was “Active”, the Activity [17] was “Non-Toxic” and the half-life [18] was 5.16 h. It also gave an AUMCt [19] of 903 hr.hr.ng/ml, an AUC(0-t) at 24 h [20] of 2750 ng·h/mL and an AUMC [21] of 982 hr.hr.ng/ml. For the same compound, the Vd [22] was 3.45 L/kg, the Activity (Rattus norvegicus [23]) was 68.37% and the Activity [24] was “Non-Toxic”. For the same compound, the clearance [25] was 27.4 mL/min/kg, the k el at 24 h [26] was 3.75e-05 s⁻¹ and the Cmax [27] was 2960 ng/mL. For the same compound, the AUC(0-t) at 24 h [28] was 1350 ng·h/mL, the C0 at 24 h [29] was 12400 ng/mL and the k el at 24 h [30] was 0.000171 s⁻¹. The Activity (Rattus norvegicus [31]) was 32.46%, the clearance [32] was 55.9 mL/min/kg and the AUC(0-inf) [33] was 1360 ng·h/mL.
